Experimental findings from ChEMBL document CHEMBL3822423 (J Med Chem, 2016) are described below.

≈ marks a conversion by molar mass, not a printed value. Calls of active or inactive are those of the source. The rule behind the calls is not given here.

Common to all, as to assay type: functional
One assay has as its system Bacillus. Put plainly: Antibacterial activity against Bacillus proteus ATCC 13315 after 18 to 24 hrs.
A further assay concerns Escherichia coli. Put plainly: Antibacterial activity against Escherichia coli ATCC 25922 after 18 to 24 hrs.
The subject of assay [1] is Staphylococcus aureus. Put plainly: Antibacterial activity against Staphylococcus aureus ATCC 25923 after 18 to 24 hrs.
Assay [2] is described as follows: Antibacterial activity against Eberthella typhosa ATCC 14028 after 18 to 24 hrs.
Assay [3] concerns Staphylococcus aureus. The assay is described as follows: Antibacterial activity against methicillin-resistant Staphylococcus aureus N315 after 18 to 24 hrs.
The next assay deals with Micrococcus luteus. The assay is described as follows: Antibacterial activity against Micrococcus luteus ATCC 4698 after 18 to 24 hrs. To be noted: NCTC 2665.
The subject of another assay is Bacillus spizizenii. The assay is described as follows: Antibacterial activity against Bacillus subtilis ATCC 6633 after 18 to 24 hrs.
The test system of another assay is Pseudomonas aeruginosa. The assay is described as follows: Antibacterial activity against Pseudomonas aeruginosa ATCC 9027 after 18 to 24 hrs.

Take `CCn1cc(-c2csc(N)n2)c(=O)c2cc(N3CCOCC3)c(Cl)cc21`: the MIC entry in the assay with Bacillus was “inactive”. Moreover, the MIC was determined as 128 µg/mL (≈ 327 µM) against Escherichia coli; 0.8 µg/mL (≈ 2.05 µM) in the assay on Staphylococcus aureus [1]; 95.7 µg/mL (≈ 245 µM) in assay [2]; 255 µg/mL (≈ 653 µM) in the assay on Staphylococcus aureus [3]; 128 µg/mL (≈ 327 µM) against Micrococcus luteus; 255 µg/mL (≈ 653 µM) in the assay with Bacillus spizizenii. Further, the MIC against Pseudomonas aeruginosa came out at 170 µg/mL (≈ 435 µM).

Take `CCn1cc(-c2csc(N)n2)c(=O)c2cc(N3CCCCC3)c(Cl)cc21`: the MIC against Bacillus came out at 34.4 µg/mL (≈ 88.4 µM); in the assay with Escherichia coli it was 118 µg/mL (≈ 303 µM); against Staphylococcus aureus [1], 61.2 µg/mL (≈ 157 µM); in assay [2], 17.2 µg/mL (≈ 44.2 µM); in the assay with Staphylococcus aureus [3], 24.6 µg/mL (≈ 63.3 µM); with Micrococcus luteus, 49 µg/mL (≈ 126 µM). In addition, the MIC against Bacillus spizizenii amounted to 19.6 µg/mL (≈ 50.4 µM); against Pseudomonas aeruginosa, 34.4 µg/mL (≈ 88.4 µM).

On to `CCn1cc(-c2csc(N)n2)c(=O)c2cc(F)c(Cl)cc21`, for which the MIC with Bacillus was 3.3 µg/mL (≈ 10.2 µM); against Escherichia coli, 6.7 µg/mL (≈ 20.7 µM); in assay [2], 2.6 µg/mL (≈ 8.03 µM); with Staphylococcus aureus [3] it was 8 µg/mL (≈ 24.7 µM); with Micrococcus luteus it was 26.6 µg/mL (≈ 82.2 µM); against Bacillus spizizenii, 10.6 µg/mL (≈ 32.7 µM). Moreover, in the assay with Pseudomonas aeruginosa, the MIC stood at 1.6 µg/mL (≈ 4.94 µM). The MIC entry in the assay on Staphylococcus aureus [1] was “inactive”.

Regarding `CCn1cc(C(C)=O)c(=O)c2cc(F)c(N3CCCC3)cc21`, the MIC in the assay with Bacillus came to 33.1 µg/mL (≈ 109 µM); in the assay on Escherichia coli, 43.3 µg/mL (≈ 143 µM); against Staphylococcus aureus [1], 5.1 µg/mL (≈ 16.9 µM); in assay [2] it was 122 µg/mL (≈ 404 µM); in the assay on Staphylococcus aureus [3] it was 50.9 µg/mL (≈ 168 µM); against Micrococcus luteus, 244 µg/mL (≈ 808 µM). The MIC in the assay on Bacillus spizizenii is 244 µg/mL (≈ 809 µM); in the assay on Pseudomonas aeruginosa it was 12.7 µg/mL (≈ 42 µM).

As to `CCn1cc(C(C)=O)c(=O)c2cc(F)c(N3CCN(C(=O)OC(C)(C)C)CC3)cc21`, the MIC amounted to 16 µg/mL (≈ 38.3 µM) against Bacillus; 128 µg/mL (≈ 307 µM) in the assay on Escherichia coli; 16 µg/mL (≈ 38.3 µM) in the assay with Staphylococcus aureus [1]; 42.7 µg/mL (≈ 102 µM) in assay [2]; 64 µg/mL (≈ 153 µM) against Staphylococcus aureus [3]; 21.3 µg/mL (≈ 51 µM) with Bacillus spizizenii. Besides, the MIC result with Micrococcus luteus and with Pseudomonas aeruginosa was “inactive” each time.

For the compound `CCn1cc(C(C)=O)c(=O)c2cc(N3CCOCC3)c(Cl)cc21`, the MIC came to 13.3 µg/mL (≈ 39.7 µM) in the assay on Bacillus; 37.3 µg/mL (≈ 111 µM) in assay [2]; 128 µg/mL (≈ 382 µM) against Staphylococcus aureus [3]; 53.3 µg/mL (≈ 159 µM) against Micrococcus luteus; 42.7 µg/mL (≈ 128 µM) in the assay on Pseudomonas aeruginosa. The MIC entry with Escherichia coli, in the assay with Staphylococcus aureus [1] and with Bacillus spizizenii was “inactive” in each case.

For the compound `CCn1cc(-c2csc(N)n2)c(=O)c2cc(F)c(N3CCCCC3)cc21`, the MIC in the assay on Bacillus was 37.3 µg/mL (≈ 100 µM); in the assay on Escherichia coli it was 128 µg/mL (≈ 344 µM); against Staphylococcus aureus [1], 64 µg/mL (≈ 172 µM); in assay [2] it was 74.7 µg/mL (≈ 201 µM); against Staphylococcus aureus [3], 53.3 µg/mL (≈ 143 µM); in the assay on Bacillus spizizenii it was 42.7 µg/mL (≈ 115 µM). In addition, inhibition of growth in the assay on Pseudomonas aeruginosa (MIC) required 42.7 µg/mL (≈ 115 µM). Further, the MIC result in the assay with Micrococcus luteus was “inactive”.

Turning to `CCn1cc(-c2csc(N)n2)c(=O)c2cc(F)c(N3CCNCC3)cc21`, the MIC against Bacillus came to 2 µg/mL (≈ 5.36 µM); with Escherichia coli, 16 µg/mL (≈ 42.8 µM); in the assay with Staphylococcus aureus [1], 16 µg/mL (≈ 42.8 µM); in assay [2] it was 10.7 µg/mL (≈ 28.7 µM); against Staphylococcus aureus [3], 32.1 µg/mL (≈ 86 µM); with Micrococcus luteus it was 64.2 µg/mL (≈ 172 µM). In addition, the values for the MIC against Bacillus spizizenii and against Pseudomonas aeruginosa were 10.7 µg/mL (≈ 28.7 µM) and 4 µg/mL (≈ 10.7 µM), respectively.

For `CCn1cc(C(C)=O)c(=O)c2cc(F)c(N3CCCCC3)cc21`, the MIC against Bacillus is 20.3 µg/mL (≈ 64.2 µM); in the assay on Escherichia coli it was 40.6 µg/mL (≈ 128 µM); with Staphylococcus aureus [1], 8.9 µg/mL (≈ 28.1 µM); in assay [2], 121 µg/mL (≈ 383 µM); against Staphylococcus aureus [3], 17.8 µg/mL (≈ 56.3 µM); with Micrococcus luteus it was 10.1 µg/mL (≈ 31.9 µM). In addition, the minimal inhibitory concentration (MIC) against Bacillus spizizenii came to 12.7 µg/mL (≈ 40.1 µM); against Pseudomonas aeruginosa it was 22.8 µg/mL (≈ 72.1 µM).

With `CCn1cc(-c2csc(N)n2)c(=O)c2cc(F)c(N3CCOCC3)cc21`, the minimal inhibitory concentration (MIC) worked out at 1.7 µg/mL (≈ 4.54 µM) with Bacillus; 6 µg/mL (≈ 16 µM) against Escherichia coli; 0.8 µg/mL (≈ 2.14 µM) with Staphylococcus aureus [1]; 14.7 µg/mL (≈ 39.3 µM) in assay [2]; 32 µg/mL (≈ 85.5 µM) against Staphylococcus aureus [3]; 13.3 µg/mL (≈ 35.5 µM) against Micrococcus luteus. For the same compound, the MIC was 18.7 µg/mL (≈ 49.9 µM) with Bacillus spizizenii and 10.7 µg/mL (≈ 28.6 µM) with Pseudomonas aeruginosa.

As for `CCn1cc(-c2csc(N)n2)c(=O)c2cc(F)ccc21`, the MIC with Bacillus was 10.7 µg/mL (≈ 37 µM); with Escherichia coli, 24 µg/mL (≈ 82.9 µM); in the assay with Staphylococcus aureus [1], 128 µg/mL (≈ 442 µM); in assay [2] it was 21.3 µg/mL (≈ 73.6 µM); against Micrococcus luteus it was 18.7 µg/mL (≈ 64.6 µM); against Bacillus spizizenii, 3.3 µg/mL (≈ 11.4 µM). The compound also displayed an MIC with Pseudomonas aeruginosa of 13.3 µg/mL (≈ 46 µM). Further, in the assay on Staphylococcus aureus [3], the MIC result is “inactive”.

Turning to `CCn1cc(C(C)=O)c(=O)c2cc(F)c(N3CCOCC3)cc21`, the MIC against Bacillus stood at 2.7 µg/mL (≈ 8.48 µM); against Escherichia coli it was 256 µg/mL (≈ 804 µM); against Staphylococcus aureus [1] it was 53.3 µg/mL (≈ 167 µM); in assay [2], 2.3 µg/mL (≈ 7.22 µM); in the assay with Staphylococcus aureus [3] it was 256 µg/mL (≈ 804 µM); in the assay with Micrococcus luteus it was 128 µg/mL (≈ 402 µM). Moreover, in the assay with Pseudomonas aeruginosa, it took 256 µg/mL (≈ 804 µM) to inhibit growth (MIC). For the same compound, the MIC result with Bacillus spizizenii is “inactive”.

For `CCn1cc(-c2csc(N)n2)c(=O)c2cc(C)ccc21`, the minimum inhibitory concentration (MIC) in the assay with Bacillus was 0.8 µg/mL (≈ 2.8 µM); with Escherichia coli it was 4.7 µg/mL (≈ 16.5 µM); with Staphylococcus aureus [1] it was 2.4 µg/mL (≈ 8.41 µM); in assay [2] it was 24.1 µg/mL (≈ 84.5 µM); against Staphylococcus aureus [3], 129 µg/mL (≈ 451 µM); against Micrococcus luteus, 5.4 µg/mL (≈ 18.9 µM). For the same compound, the values for the MIC in the assay on Bacillus spizizenii and in the assay on Pseudomonas aeruginosa were 64.4 µg/mL (≈ 226 µM) and 2.7 µg/mL (≈ 9.46 µM), respectively.

With `O=C(N[C@H](CO)[C@H](O)c1ccc([N+](=O)[O-])cc1)C(Cl)Cl` [CHLORAMPHENICOL], the MIC was 32 µg/mL (≈ 99 µM) in the assay on Bacillus; 13.8 µg/mL (≈ 42.7 µM) with Escherichia coli; 16 µg/mL (≈ 49.5 µM) against Staphylococcus aureus [1]; 26.6 µg/mL (≈ 82.3 µM) in assay [2]; 21.3 µg/mL (≈ 65.9 µM) against Staphylococcus aureus [3]; 13.3 µg/mL (≈ 41.2 µM) with Micrococcus luteus. Moreover, the MIC came to 26.6 µg/mL (≈ 82.3 µM) in the assay with Bacillus spizizenii and 32 µg/mL (≈ 99 µM) in the assay on Pseudomonas aeruginosa.

In the case of `CCn1cc(-c2csc(N)n2)c(=O)c2cc(F)c(N3CCN(C(=O)OC(C)(C)C)CC3)cc21`, the MIC amounted to 2.6 µg/mL (≈ 5.49 µM) in the assay on Bacillus; 10.7 µg/mL (≈ 22.6 µM) in the assay on Escherichia coli; 64 µg/mL (≈ 135 µM) in the assay with Staphylococcus aureus [1]; 5.3 µg/mL (≈ 11.2 µM) in assay [2]; 10.7 µg/mL (≈ 22.6 µM) in the assay on Staphylococcus aureus [3]; 32 µg/mL (≈ 67.6 µM) in the assay on Micrococcus luteus. Also, the MIC with Bacillus spizizenii came out at 42.7 µg/mL (≈ 90.2 µM); in the assay on Pseudomonas aeruginosa, 8 µg/mL (≈ 16.9 µM).

Take `CCn1cc(C(C)=O)c(=O)c2cc(N3CCCC3)c(Cl)cc21`: the MIC in the assay on Bacillus was found to be 64 µg/mL (≈ 201 µM); in the assay on Escherichia coli it was 26.7 µg/mL (≈ 83.8 µM); against Staphylococcus aureus [1], 18.7 µg/mL (≈ 58.7 µM); in assay [2], 18.7 µg/mL (≈ 58.7 µM); with Staphylococcus aureus [3] it was 16 µg/mL (≈ 50.2 µM); in the assay with Micrococcus luteus, 10.7 µg/mL (≈ 33.6 µM). For the same compound, the figures for the MIC in the assay on Bacillus spizizenii and against Pseudomonas aeruginosa were 10.7 µg/mL (≈ 33.6 µM) and 9.3 µg/mL (≈ 29.2 µM), respectively.

Take `CCn1cc(-c2csc(N)n2)c(=O)c2ccc(C(F)(F)F)cc21`: the MIC against Bacillus is 13.3 µg/mL (≈ 39.2 µM); with Escherichia coli, 5.3 µg/mL (≈ 15.6 µM); with Staphylococcus aureus [1], 128 µg/mL (≈ 377 µM); in assay [2] it was 1.7 µg/mL (≈ 5.01 µM); with Staphylococcus aureus [3], 53.2 µg/mL (≈ 157 µM); in the assay with Bacillus spizizenii it was 63.9 µg/mL (≈ 188 µM). Besides, in the assay with Pseudomonas aeruginosa, the MIC stood at 13.3 µg/mL (≈ 39.2 µM). Besides, the MIC entry in the assay with Micrococcus luteus was “inactive”.

`CCn1cc(-c2csc(N)n2)c(=O)c2cc(Cl)cc(Cl)c21`: the MIC is 3.3 µg/mL (≈ 9.7 µM) against Bacillus; 21.2 µg/mL (≈ 62.3 µM) with Escherichia coli; 3 µg/mL (≈ 8.82 µM) in the assay on Staphylococcus aureus [1]; 2.7 µg/mL (≈ 7.94 µM) in assay [2]; 16 µg/mL (≈ 47 µM) with Micrococcus luteus; 2.7 µg/mL (≈ 7.94 µM) in the assay on Bacillus spizizenii. In the assay with Pseudomonas aeruginosa, this compound showed an MIC of 2.3 µg/mL (≈ 6.76 µM). The MIC result in the assay with Staphylococcus aureus [3] was “inactive”.

Turning to `CCn1cc(-c2csc(N)n2)c(=O)c2cc(OC)ccc21`, the MIC with Bacillus amounted to 2.7 µg/mL (≈ 8.96 µM); in the assay on Escherichia coli it was 13.3 µg/mL (≈ 44.1 µM); with Staphylococcus aureus [1] it was 18.8 µg/mL (≈ 62.4 µM); in assay [2], 8 µg/mL (≈ 26.5 µM); in the assay on Staphylococcus aureus [3], 256 µg/mL (≈ 849 µM); with Micrococcus luteus it was 42.7 µg/mL (≈ 142 µM). For the same compound, the MIC against Bacillus spizizenii turned out to be 10.7 µg/mL (≈ 35.5 µM); with Pseudomonas aeruginosa, 21.3 µg/mL (≈ 70.7 µM).
